From patent US12306194B2, “Reagent for fluorescence imaging of lipid droplets in cell and tissue” (NATIONAL UNIVERSITY CORPORATION GUNMA UNIVERSITY, priority 2019, dated 2025)

Experiments:
[1] = test system: lipid droplets in HeLa cells; test: Fluorescence imaging of lipid droplets in oleic acid-treated HeLa cells; assay type: cell-based
Description: Since LipiDye requires use of an excitation wavelength of about 405 nm, there is a concern about phototoxicity to cells in cases of long observation.

[2] = test system: 3T3-L1 cells (adipocytes); test: Intracellular retention property in 3T3-L1 cells; assay type: cell-based
Method: (§1) Using a fluorescence microscope (IX71, manufactured by Olympus Corporation), fluorescence imaging images of cells were acquired over time, and the photostability (It/I0) and the retention property were measured.
For evaluation of the intracellular retention property of each reagent, each fluorescent reagent was added to 3T3-L1 cells (adipocytes) to a final concentration of 100 nM (for Lipi-Green, 500 nM), and imaging images were acquired after 30 minutes of culture and 24 hours after washing away of the reagent.

[3] = test system: 3T3-L1 cells (adipocytes); test: Intracellular photostability under excitation light in 3T3-L1 cells; assay type: cell-based; conditions: summary grade, Table 3
Method: as §1
The photostability and the retention property are important factors in long-term measurement for, for example, tracing the processes of formation, fusion, and degradation of lipid droplets. Each fluorescent reagent was added to 3T3-L1 cells (adipocytes) to a final concentration of 100 nM, and the cells were cultured for 30 minutes. After washing the cells, the cells were irradiated with an excitation light required for imaging (450 to 500 nm; for LipiDye, an excitation wavelength of 400 to 440 nm), to evaluate the photostability. By regarding the time immediately after the irradiation as Second 0, imaging images were acquired at 20-second intervals for analysis of the image intensity.

[4] = Measurement of maximum absorption wavelength, maximum fluorescence wavelength and fluorescence quantum yield in solvents; assay type: physicochemical
Method: Using a luminescent quantum yield measurement apparatus ([…]-01, manufactured by Hamamatsu Photonics K.K.), the maximum absorption wavelength (λabs/nm), the maximum fluorescence wavelength (λflu/nm), and the fluorescence quantum yield (Φf) of the compound in each solvent were measured. The absorption spectrum was measured using an ultraviolet and visible spectrophotometer (Ubest-550, manufactured by JASCO Corporation), and the fluorescence emission spectrum was measured using a fluorescence spectrophotometer (F-7000, manufactured by Hitachi, Ltd.)

[5] = Measurement of fluorescence lifetime in solvents; assay type: physicochemical
Method: The fluorescence lifetime (τf) of each compound in each solvent was measured using a compact fluorescence lifetime measurement apparatus (Quntaurus-Tau, manufactured by Hamamatsu Photonics K.K.).

[6] = 100 nM (Lipi-Green 500 nM), 3T3-L1 cells, 24 hours after washing away of the reagent

Row | Compound | Photostability [3] | Φf (fluorescence quantum yield) ([4]; in Bu2O (dibutyl ether)) | λmax abs (maximum absorption wavelength) ([4]; in Bu2O (dibutyl ether)) | λmax flu (maximum fluorescence wavelength) ([4]; in Bu2O (dibutyl ether)) | Φf (fluorescence quantum yield) ([4]; in MeCN) | λmax abs (maximum absorption wavelength) ([4]; in MeCN) | λmax flu (maximum fluorescence wavelength) ([4]; in MeCN) | τf (fluorescence lifetime) ([5]; in Bu2O (dibutyl ether)) | τf (fluorescence lifetime) ([5]; in MeCN) | Brightness in cells ([1]; summary grade, Table 3) | Selectivity for lipid droplets ([1]; summary grade, Table 3) | intracellular retention property [2, 6] | imaging of lipid droplets / lipid droplet selectivity in HeLa cells ([1]; 100 nM reagent, 30 minutes, 400 μM oleic acid 48 hours) | fluorescence intensity of HeLa cells ([1]; 100 nM reagent, 30 minutes, compared with BODIPY493/503 or Lipi Green) | intracellular retention property ([2]; summary grade, Table 3)
1 | CC1=CC(C)=[N+]2C1=C(C)c1c(C)cc(C)n1[B-]2(F)F [BODIPY493/503] |  |  |  |  |  |  |  |  |  | Δ | ◯ | remarkable decreases in the fluorescence intensity |  |  | 
2 | CCN(CC)c1ccc2nc3c4ccccc4c(=O)cc-3oc2c1 [Nile Red] | Δ |  |  |  |  |  |  |  |  | ◯ |  | remarkable decreases in the fluorescence intensity | low lipid droplet selectivity | higher fluorescence intensities | Δ
3 | CCN(CC)c1ccc2cc3cc(-c4nc5ccccc5[nH]4)c(=O)oc3cc2c1 [PC6NH, 3-(1H-Benzo[d]imidazol-2-yl)-8-(diethylamino)-2H-benzo[g]chromen-2-one] |  | 0.89 | 458 nm | 523 nm | 0.82 | 477 nm | 604 nm | 2.79 ns | 3.78 ns |  |  |  |  |  | 

Further lines, with some results ahead:

Row | Photostability [3] | Φf (fluorescence quantum yield) ([4]; in Bu2O (dibutyl ether)) | λmax abs (maximum absorption wavelength) ([4]; in Bu2O (dibutyl ether)) | λmax flu (maximum fluorescence wavelength) ([4]; in Bu2O (dibutyl ether)) | Φf (fluorescence quantum yield) ([4]; in MeCN) | λmax abs (maximum absorption wavelength) ([4]; in MeCN) | λmax flu (maximum fluorescence wavelength) ([4]; in MeCN) | τf (fluorescence lifetime) ([5]; in Bu2O (dibutyl ether)) | τf (fluorescence lifetime) ([5]; in MeCN) | Compound | Brightness in cells ([1]; summary grade, Table 3) | Selectivity for lipid droplets ([1]; summary grade, Table 3) | intracellular retention property [2, 6] | imaging of lipid droplets / lipid droplet selectivity in HeLa cells ([1]; 100 nM reagent, 30 minutes, 400 μM oleic acid 48 hours) | fluorescence intensity of HeLa cells ([1]; 100 nM reagent, 30 minutes, compared with BODIPY493/503 or Lipi Green) | intracellular retention property ([2]; summary grade, Table 3)
4 |  | 0.67 | 438 nm | 512 nm | 0.77 | 449 nm | 590 nm | 3.53 ns | 4.08 ns | CCN(CC)c1ccc2cc3cc(-c4nc5ccccc5n4C)c(=O)oc3cc2c1 [PC6NMe, 8-(Diethylamino)-3-(1-methyl-1H-benzo[d]imidazol-2-yl)-2H-benzo[g]chromen-2-one] |  |  |  |  |  | 
5 |  | 0.86 | 460 nm | 530 nm | 0.80 | 478 nm | 613 nm | 2.83 ns | 3.70 ns | CCN(CC)c1ccc2cc3cc(-c4nc5ccccc5o4)c(=O)oc3cc2c1 [PC6O, 3-(Benzo[d]oxazol-2-yl)-8-(diethylamino)-2H-benzo[g]chromen-2-one] |  |  |  |  |  | 
